The source of these data is patent US9833466B2, “Treatment of leukemia with histone deacetylase inhibitors” (Acetylon Pharmaceuticals Inc., priority 2014, dated 2017).

Entries after “also recorded” stand apart in the source; their conditions may differ.

One data set relates to AML1/ETO fusion protein. Put plainly: AML1/ETO fusion protein Western blot in Kasumi-1 cells. In kind it is cell-based. The settings on record: 24 hours. The method, then:
One type of AML has a signature chromosome translocation t(8:21) and therefore expression of a unique fusion protein AML1/ETO. […] In this study, Kasumi-1 cells were exposed to different concentrations of the HDAC inhibitor Compound A, or another HDAC1/2/6 selective inhibitor Compound G (data not shown), for 24 hours. The whole cell lysates were separated by SDS-PAGE (SDS-polyacrylamide gel electrophoresis) and transferred to a membrane (Western blot). The AML1/ETO fusion protein was detected on the membrane using an AML1 specific antibody.
For orientation: A western blot detects proteins with antibodies after separation by electrophoresis.

In the next data set the test system is MV4-11 cells. Description: MV4-11 tumor growth and survival in Ncr nu/nu mice. In kind it is in vivo. The protocol:
Ncr nu/nu mice implanted with MV4-11 cells were treated with vehicle, azacitidine (5 mg/kg IV q3d), or azacitidine (5 mg/kg IV q3d) plus Compound A (50 mg/kg IP 5/2/5/2/5/2/5) for up to 4 weeks. (A) Tumor volume was measured twice weekly and the mean tumor volume±SD is plotted. (B) Fold tumor volume change on day 19 relative to day 1 is plotted. (C) Survival curve was plotted.

For data set [1], the system named is AML blast freshly derived from bone marrow of AML patients. Put plainly: Ex vivo proliferation of AML blast freshly derived from bone marrow. In kind it is cell-based. Conditions: Homo sapiens; 5 bone marrow samples from AML patients; flow cytometry at 96 h; single agent; read-out: median IC50, live AML cells. The protocol: (A-B), 5 bone marrow samples derived from AML patients were treated with increasing concentrations of azacitidine, Compound A and Compound J and live AML cells were quantified by flow cytometry at 96 h. IC50 values (A) and AUC values (B) were plotted. […] The relative potency of the three drugs are Compound J>azacitidine>Compound A, consistent with the result in FIG. 2. (C) 5 bone marrow samples derived from AML patients were treated with increasing doses of azacitidine with Compound J and live AML cells were quantified by flow cytometry at 96 h. The combination index (Comb IDX) were calculated and median Comb IDX values were plotted.
In general terms: Flow cytometry measures light scatter and fluorescence of single cells or particles in a stream.

Another data set has as its system multiple myeloma. The settings on record: preclinical models of multiple myeloma; cited from earlier work.
The conditions of data set [2]: Phase I trials; cited from earlier work.
Another data set has as its target T1, HDAC6 (Homo sapiens, UniProt Q9UBN7).
T1 sequence (Q9UBN7 1-1215): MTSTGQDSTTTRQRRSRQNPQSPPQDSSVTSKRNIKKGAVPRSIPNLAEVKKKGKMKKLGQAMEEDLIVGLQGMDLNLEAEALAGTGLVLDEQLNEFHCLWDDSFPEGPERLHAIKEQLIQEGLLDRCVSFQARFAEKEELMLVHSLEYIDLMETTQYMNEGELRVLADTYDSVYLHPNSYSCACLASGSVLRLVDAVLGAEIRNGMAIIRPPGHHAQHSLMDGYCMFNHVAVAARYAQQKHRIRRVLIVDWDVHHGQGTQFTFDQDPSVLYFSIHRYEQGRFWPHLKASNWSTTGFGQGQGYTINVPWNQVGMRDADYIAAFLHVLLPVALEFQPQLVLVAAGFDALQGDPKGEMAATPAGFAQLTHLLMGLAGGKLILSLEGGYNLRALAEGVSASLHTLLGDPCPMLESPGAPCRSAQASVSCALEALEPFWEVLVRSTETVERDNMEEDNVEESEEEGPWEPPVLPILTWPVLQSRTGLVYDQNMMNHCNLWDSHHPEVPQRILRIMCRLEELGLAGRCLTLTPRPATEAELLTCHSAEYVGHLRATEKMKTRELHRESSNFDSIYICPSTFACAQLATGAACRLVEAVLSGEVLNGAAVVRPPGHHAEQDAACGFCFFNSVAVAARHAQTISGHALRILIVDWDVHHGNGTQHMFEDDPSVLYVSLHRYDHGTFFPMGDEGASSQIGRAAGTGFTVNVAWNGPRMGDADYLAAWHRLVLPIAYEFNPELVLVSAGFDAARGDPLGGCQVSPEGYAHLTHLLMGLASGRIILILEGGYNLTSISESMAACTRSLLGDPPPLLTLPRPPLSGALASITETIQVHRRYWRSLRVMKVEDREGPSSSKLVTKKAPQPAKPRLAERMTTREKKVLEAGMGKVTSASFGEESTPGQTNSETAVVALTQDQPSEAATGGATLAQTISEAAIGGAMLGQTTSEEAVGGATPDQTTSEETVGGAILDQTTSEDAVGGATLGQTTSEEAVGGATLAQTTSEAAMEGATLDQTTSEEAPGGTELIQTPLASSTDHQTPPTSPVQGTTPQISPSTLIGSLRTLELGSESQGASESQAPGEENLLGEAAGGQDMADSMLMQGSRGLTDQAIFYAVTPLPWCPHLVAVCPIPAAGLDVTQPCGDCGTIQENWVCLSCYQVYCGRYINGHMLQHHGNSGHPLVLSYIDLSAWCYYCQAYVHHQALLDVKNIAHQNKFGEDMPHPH
Put plainly: HDAC enzyme assays (selectivity for HDAC6). It is filed as biochemical. The protocol:
Compounds for testing are diluted in DMSO to 50 fold the final concentration and a ten point three fold dilution series is made. The compounds are diluted in assay buffer (50 mM HEPES, pH 7.4, 100 mM Kill, 0.001% Tween-20, 0.05% BASE, 20 μM TEC) to 6 fold their final concentration. The HDAC enzymes (purchased from BPS Biosciences) are diluted to 1.5 fold their final concentration in assay buffer. The dipeptide substrate and trypsin at 0.05 μM final concentration are diluted in assay buffer at 6 fold their final concentration. The final enzyme concentrations to use in these assays are 3.3 ng/ml (HDAC1), 0.2 ng/ml (HDAC2), 0.08 ng/ml (HDAC3) and 2 ng/ml (HDAC6). The final substrate concentrations to use are 16 μM (HDAC1), 10 μM (HDAC2), 17 μM (HDAC3) and 14 μM (HDAC6). Five μ1 of compound and 20 μl of enzyme are added to wells of a black, opaque 384 well plate in duplicate. Enzyme and compound are incubated together at room temperature for 10 min. Five μ1 of substrate is added to each well, the plate is shaken for 60 seconds and placed into a Victor 2 microliter plate reader. The development of fluorescence is monitored for 60 min. and the linear rate of the reaction is calculated. The IC50 is determined using Graph Pad Prism by a four parameter curve fit.

Another data set relates to GATA2. Put plainly: GATA2 expression in MV4-11 AML cell line. In kind it is cell-based. Conditions: 48 h and 72 h. The method, then:
FIG. 16. […] (A-B) MV4-11 cells were plated at 2×10^5 cells/ml at indicated doses for 48 h and 72 h. RNA was prepared and analyzed for GATA2 and GAPDH as internal control.

Where [3] appears, read: Compound A 50 mg/kg IP plus azacitidine 5 mg/kg IV q3d, vs azacitidine or vehicle alone.

For orientation: IC50 means the point on the concentration scale where inhibition reaches its midpoint. As to `O=C(CCCCCCNC(=O)c1cnc(N(c2ccccc2)c2ccccc2)nc1)NO` [Compound A, 2-(diphenylamino)-N-(7-(hydroxyamino)-7-oxoheptyl)pyrimidine-5-carboxamide], the “amount of AML1/ETO fusion protein” value in the data set on AML1/ETO fusion protein is listed as “decrease the amount of this fusion protein in a concentration dependent manner”. In the data set on MV4-11 cells (setting [3]), the survival entry is given as “further enhanced; also recorded: increased survival in vivo” and the tumor growth result was “further enhanced; also recorded: reduced tumor growth in vivo”. The “fold tumor volume change” value in the data set on MV4-11 cells (Compound A plus azacitidine vs azacitidine or vehicle alone, day 19 relative to day 1) was “reduced the fold tumor volume change”. Also, the IC50 in data set [1] is 7.2 µM. Besides, the “synergy with bortezomib and immunomodulatory agents” value in the data set on multiple myeloma is “synergizes with bortezomib”. The safety and tolerability entry in data set [2] was “improved safety and tolerability profile”.

Regarding `O=C(CCCCCCNC(=O)c1cnc(N(c2ccccc2)c2ccccc2Cl)nc1)NO` [Compound B, 2-((2-chlorophenyl)(phenyl)amino)-N-(7-(hydroxyamino)-7-oxoheptyl)pyrimidine-5-carboxamide], on HDAC6, the “selective for HDAC6” value was “about 10 times”.

For the molecule `Nc1ccc(-c2cccs2)cc1NC(=O)c1ccc2c(c1)cc(C1CC1)n2CCN1CCOCC1` [Compound E, N-(2-amino-5-(thiophen-2-yl)phenyl)-2-cyclopropyl-1-(2-morpholinoethyl)-1H-indole-5-carboxamide], in the data set with GATA2 (combination of azacitidine and Compound E), the GATA2 expression result is given as “further induced GATA2 expression; also recorded: synergistically induce GATA2 expression”. The GATA2 level result with GATA2 (single agent at 1 uM) is on record as “induced GATA2 level”.
